“Also recorded” adds a separate entry of the source. Like-named read-outs stand apart in the source and are kept apart here.
Columns and labels:
[1] = PK of five RC components in sham operation administration (SDG, normal) rats after oral RC extract, HPLC-QQQ-MS/MS, DAS; type: in vivo, SD rats; conditions: rat, SDG rats, oral RC extract 2 g/kg, plasma, mean ± SD, n = 6; for AUC(0-t): read-out: AUC(0−t); for AUC(0-inf): read-out: AUC(0−∞); for CL/F: read-out: CLz/F (converted); for Cmax: read-out: Cmax; for MRT: read-out: MRT(0−); for MRT inf: read-out: MRT(0−∞); for Tmax: read-out: Tmax; for Vd/F: read-out: Vz/F; for half-life: read-out: t1/2z (converted)
Description: (§1) The drug concentration in plasma was calculated using the standard curve, and the mean blood concentration was plotted against the time to obtain the mean blood concentration–time curve (Figure 4).
(§2) The rat model of MI was made with Pit. The rats were divided into a sham operation group (SG), sham operation administration group (SDG), model group (MG), and model administration group (MDG) (n = 6 for each group). The MI model was prepared via an intraperitoneal injection (a single time) of Pit in the MG and MDG, with a dosage of 20 U/kg and a volume of 10 mL/kg. At the same time, the rats in the SG and SDG groups were given the same volume of saline in the same way.
(§3) RC extract (2 g/kg, equivalent to human clinical equivalent dose) was given to rats via oral administration in SDG and MDG, and the same volume of normal saline was orally administered to the SG and MG. Rats were fasted for 12 h before the experiment. Blood was collected from the fundus venous plexus at 0, 5, 10, 15, 30, 45 min, 1, 2, 4, 6, 8, 12, and 24 h after in gavage, placed in a centrifuge tube impregnated with heparin sodium, centrifuged at 3500 rpm for 15 min, and then the plasma was collected and divided into two parts. One part was used for biochemical index determination and the other part was used to determine the content of pharmaceutical ingredients in vivo. After the experiment, the rats were sacrificed, and the hearts were placed in paraformaldehyde for histopathological analysis.
(§4) The plasma sample of 100 μL was accurately absorbed, 50 μL internal standard solution (Nimodipine, 500 ng/mL) was added, then 300 μL acetonitrile precipitated protein was added, vortex for 10 min, placed under ultrasound for 3 min, centrifuged at 13,000 rpm for 10 min, and then the supernatant was transferred to another centrifuge tube. It was then concentrated until dry with a rotary evaporator. The residue was redissolved with 100 μL 50% acetonitrile, swirled for 1 min, placed under ultrasonic for 3 min, centrifuged at 13,000 rpm for 10 min, and the supernatant was taken for analysis.
(§5) A validated HPLC-QQQ-MS/MS method was used for the determination of drug-derived components in plasma samples at different time points. The accompanying standard curve was substituted to calculate the content of the compounds to be measured, and then the PK parameters were calculated using DAS software (version 3.2.8), and the blood concentration–time curve was plotted using GraphPad Prism (version 8.0.2). PK behavior was compared between the sham operation and model group, and PK models were established, respectively.

[2] = PK of five RC components in pituitrin-induced myocardial ischemia (MDG) rats after oral RC extract, HPLC-QQQ-MS/MS, DAS; type: in vivo, SD rats; conditions: for Change of CLZ/F in MDG compared with SDG / Change of Cmax in MDG compared with SDG: MDG vs SDG rats; for AUC(0-t) / AUC(0-inf) / CL/F / Cmax / MRT / MRT inf / Tmax / Vd/F / half-life: rat, plasma; for AUC(0-t): read-out: AUC(0−t); for AUC(0-inf): read-out: AUC(0−∞); for CL/F: read-out: CLz/F (converted); for Cmax: read-out: Cmax; for MRT: read-out: MRT(0−); for MRT inf: read-out: MRT(0−∞); for Vd/F: read-out: Vz/F; for half-life: read-out: t1/2z (converted)
Description: as §1, §2, §3, §4, §5

AST = assay: PK-PD sigmoid-Emax model, PD index AST in MDG rats; type: in vivo, SD rats; design: unit not given beside the values
CK = assay: PK-PD sigmoid-Emax model, PD index CK in MDG rats; type: in vivo, SD rats; design: Emax: unit not given beside the values
HBDH = assay: PK-PD sigmoid-Emax model, PD index HBDH in MDG rats; type: in vivo, SD rats; design: unit not given beside the values
SOD = assay: PK-PD sigmoid-Emax model, PD index SOD in MDG rats; type: in vivo, SD rats; design: Ke0: unit not given beside the values
[3] = rat
Description: A series concentration mixed reference solution with different concentrations was added to 100 μL plasma, and was treated according to the method under Section 4.6 to obtain the matrix standard curve sample. Samples with concentrations of 400, 100, and 10 ng/mL, respectively, were taken as quality control (QC) samples of high, medium, and low concentrations (HQC, MQC, LQC). The method was validated, including linearity, inter-day/intra-day precision, repeatability, stability, extraction recovery, and matrix effect, according to FDA bioanalytical method validation guidelines.

[4] = cited from earlier work
LDH = assay: PK-PD sigmoid-Emax model, PD index LDH in MDG rats
Description: Subsequently, we incorporated the PK and PD data to conduct PK-PD modeling through DAS.
Therefore, PK-PD correlation analysis was used in this study, linking dynamic concentration–time processes and effect–time profile relationships [20, 21, 22]. […] The model adopted in this study is the S-Emax model. In the equation, γ means the shape factor in the formula, affecting the slope and determining the steepness of the curve. Emax can provide the maximum response intensity, and ED50 is for evaluating the safety of the drug, which is understood as the amount of the drug that causes 50% of the maximum response intensity.
Plasma creatine kinase (CK), hydroxybutyrate dehydrogenase (HBDH), lactate dehydrogenase (LDH), and superoxide dismutase (SOD) activity was determined using an automatic biochemical analyzer.
The activity of the CK, HBDH, LDH, and SOD of plasma samples collected at different time points was determined using an automatic biochemical analyzer for PD index evaluation. […] Two compartmental methods were used, employing the drug and statistics, which was supplied by the Chinese Pharmacological Society. Then, the efficacy indicators were fitted in the PK-PD model.

[5] = in vivo, MDG (myocardial ischemia) rats, oral RC extract 2 g/kg, mean ± SD, n = 6
[6] = SD, po, 2 g/kg, MDG (myocardial ischemia) rats, oral RC extract 2 g/kg, mean ± SD, n = 6, read-out: Tmax
[7] = SD, po, 2 g/kg, according to the PK results, group not given, oral RC extract, read-out: Tmax (approximate)
[8] = MDG (myocardial ischemia) rats, oral RC extract 2 g/kg, mean ± SD, n = 6

SMILES: O=c1c(O)c(-c2ccc(O)cc2)oc2cc(O)cc(O)c12 [Kaempferol, kaempferol]
- AUC(0-t) ([1]; in vivo): 0.306 ± 0.0305 µg·h/mL
- AUC(0-inf) ([1]; in vivo): 0.427 ± 0.0954 µg·h/mL
- CL/F ([1]; in vivo): 12.2 L/h/kg
- Cmax ([1]; in vivo): 0.0312 ± 0.00153 µg/mL
- MRT ([1]; in vivo): 8.54 ± 0.55 h
- MRT inf ([1]; in vivo): 19.4 ± 9.37 h
- Tmax ([1]; in vivo): 1.67 ± 1.21 h
- Vd/F ([1]; in vivo): 224 ± 107 L/kg
- half-life ([1]; in vivo): 14.1 ± 8.42 h
- Change of CLZ/F in MDG compared with SDG ([2]; oral RC extract 2 g/kg): marked decreasing tendency; also recorded: decreased significantly
- Change of Cmax in MDG compared with SDG ([2]; oral RC extract 2 g/kg): increased significantly; also recorded: significantly increased
- AUC(0-t) [2, 5]: 0.354 ± 0.0504 µg·h/mL
- AUC(0-inf) [2, 5]: 0.645 ± 0.179 µg·h/mL
- CL/F [2, 5]: 8.42 L/h/kg
- Cmax [2, 5]: 0.0384 ± 0.00492 µg/mL
- MRT [2, 5]: 9.05 ± 0.7 h
- MRT inf [2, 5]: 30.9 ± 14.1 h
- Tmax ([2]; in vivo, MDG (myocardial ischemia) rats, oral RC extract 2 g/kg, mean ± SD, n = 6, read-out: Tmax): 0.75 h
- Vd/F [2, 5]: 245 ± 67 L/kg
- half-life [2, 5]: 22.7 ± 10.7 h
- Emax (AST): 1422.742
- Ke0 (AST): 2.998
- Emax (CK): 2736.472
- Ke0 (CK): 2.998
- Emax (HBDH): 6565.084
- Ke0 (HBDH): 0.928
- Emax (SOD): 68.398
- Ke0 (SOD): 0.115
- Stability RE (%) ([3]; 10 ng/mL): 102.9%
- Stability RE (%) ([3]; 400 ng/mL): 94.57%
- Stability RE (%) ([3]; 48 h, 10 ng/mL): 101.5%
- Stability RE (%) ([3]; 48 h, 50 ng/mL): 90.22%
- Stability RE (%) ([3]; 48 h, 400 ng/mL): 92.55%
- Stability RE (%) ([3]; 10 days, 50 ng/mL): 99.12%
- Stability RE (%) ([3]; 10 days, 400 ng/mL): 100.4%
- AUC, MRT, t1/2, and Cmax in modeled rats ([4]; modeled rats (disease state)): increased
- Clearance in modeled rats ([4]; modeled rats (disease state)): decreased
- Emax (LDH): 599.812

SMILES: OC[C@H]1O[C@@H](OCCc2ccc(O)cc2)[C@H](O)[C@@H](O)[C@@H]1O [Salidroside, salidroside]
- AUC(0-t) [1]: 5.71 ± 0.321 µg·h/mL
- AUC(0-inf) [1]: 8.35 ± 2.31 µg·h/mL
- CL/F [1]: 0.64 L/h/kg
- Cmax [1]: 1.01 ± 0.0842 µg/mL
- MRT [1]: 7.14 ± 0.51 h
- Tmax [1]: 0.75 ± 0.16 h
- Vd/F [1]: 15.2 ± 8.77 L/kg
- half-life [1]: 19.9 ± 16 h
- Change of Cmax in MDG compared with SDG ([2]; oral RC extract 2 g/kg): increased significantly; also recorded: significantly increased
- Tmax [2, 6]: 0.83 ± 0.13 h
- Tmax [2, 7]: ~1 h
- AUC(0-t) [2, 8]: 7.79 ± 1.16 µg·h/mL
- AUC(0-inf) [2, 8]: 10 µg·h/mL
- CL/F [2, 8]: 0.52 L/h/kg
- Cmax [2, 8]: 1.35 ± 0.133 µg/mL
- MRT [2, 8]: 6.7 ± 0.61 h
- MRT inf [2, 8]: 16.7 ± 9.83 h
- Vd/F [2, 8]: 10.7 ± 7.46 L/kg
- half-life [2, 8]: 15.4 ± 11.2 h
- Emax (AST): 1091.001
- Ke0 (AST): 2.821
- Emax (CK): 2288.494
- Ke0 (CK): 2.698
- Emax (HBDH): 4898.547
- Ke0 (HBDH): 0.46
- Emax (SOD): 71.79
- Ke0 (SOD): 0.025
- Stability RE (%) ([3]; 10 ng/mL): 90.22%
- Stability RE (%) ([3]; 400 ng/mL): 99.82%
- Stability RE (%) ([3]; 48 h, 10 ng/mL): 89.72%
- Stability RE (%) ([3]; 48 h, 50 ng/mL): 90.35%
- Stability RE (%) ([3]; 48 h, 400 ng/mL): 98.56%
- Stability RE (%) ([3]; 10 days, 10 ng/mL): 88.35%
- Stability RE (%) ([3]; 10 days, 50 ng/mL): 100.1%
- Stability RE (%) ([3]; 10 days, 400 ng/mL): 97.63%
- Systemic exposure in hypoxia ([4]; hypoxia): increased significantly
- Bioavailability under pathological conditions [4]: increased significantly
- Emax (LDH): 482.587
- Ke0 (LDH): 2.476

SMILES: OCCc1ccc(O)cc1 [Tyrosol, tyrosol]
- AUC(0-t) [1]: 0.653 ± 0.0633 µg·h/mL
- AUC(0-inf) [1]: 0.729 ± 0.0492 µg·h/mL
- CL/F [1]: 6.89 L/h/kg
- Cmax [1]: 0.132 ± 0.0126 µg/mL
- MRT [1]: 5.59 ± 0.5 h
- MRT inf [1]: 9.86 ± 5.68 h
- Tmax [1]: 1.17 ± 0.41 h
- Vd/F [1]: 97 ± 70.2 L/kg
- half-life [1]: 10 ± 7.64 h
- Change of CLZ/F in MDG compared with SDG ([2]; oral RC extract 2 g/kg): marked decreasing tendency; also recorded: decreased significantly
- Tmax [2, 6]: 0.96 ± 0.1 h
- Tmax [2, 7]: ~1 h
- AUC(0-t) [2, 8]: 0.837 ± 0.0668 µg·h/mL
- AUC(0-inf) [2, 8]: 1.1 ± 0.258 µg·h/mL
- CL/F [2, 8]: 4.75 L/h/kg
- Cmax [2, 8]: 0.1434 ± 0.00141 µg/mL
- MRT [2, 8]: 6.54 ± 0.91 h
- MRT inf [2, 8]: 16.8 ± 9.96 h
- Vd/F [2, 8]: 94.4 ± 44.4 L/kg
- half-life [2, 8]: 15.6 ± 0.79 h
- Emax (AST): 1213.835
- Ke0 (AST): 2.998
- Emax (CK): 2289.882
- Ke0 (CK): 2.998
- Emax (HBDH): 7149.416
- Ke0 (HBDH): 0.724
- Emax (SOD): 68.804
- Ke0 (SOD): 0.043
- Stability RE (%) ([3]; 10 ng/mL): 94.31%
- Stability RE (%) ([3]; 50 ng/mL): 96.93%
- Stability RE (%) ([3]; 400 ng/mL): 97.75%
- Stability RE (%) ([3]; 48 h, 10 ng/mL): 85.44%
- Stability RE (%) ([3]; 48 h, 50 ng/mL): 90.28%
- Stability RE (%) ([3]; 10 days, 10 ng/mL): 99.52%
- Stability RE (%) ([3]; 10 days, 400 ng/mL): 89.70%
- Bioavailability under pathological conditions [4]: increased significantly
- Emax (LDH): 483.057
- Ke0 (LDH): 2.848
